Laboratory results taken from patent EP1242382B1, “TRICYCLIC PROTEIN KINASE INHIBITORS” (Wyeth, priority 1999, dated 2001).

Molecular target: Mitogen Activated Protein Kinase (Mek-Erk) (Homo sapiens, UniProt P28482+Q02750)
Assay: Mitogen Activated Protein Kinase (MAPK) two component coupled test procedure
Assay type: biochemical
Experimental: To evaluate inhibitors of the MAP (mitogen activated protein) kinase a two component coupled standard pharmacological test procedure, which measures phosphorylation of a serine/threonine residue in an appropriate sequence in the substrate in the presence and absence of a putative inhibitor, is used. Recombinant human MEK 1 (MAPKK) is first used to activate recombinant human ERK2 (MAPK) and the activated MAPK (ERK) is incubated with substrate (myelin basic protein peptide (MBPP) or Myc peptide) in the presence of ATP, Mg^+2 and radiolabeled ^33P ATP. The phosphorylated peptide is captured on a P 81 phosphocellulose filter (paper filter or embedded in microtiter plate) washed and counted by scintillation methods.
The peptide substrates used in the assay are MBPP, peptide substrate ([sequence]), or synthetic Myc substrate, ([sequence]•5 TFA). The recombinant enzymes used are prepared as GST fusion proteins of human ERK 2 and human MEK 1. […]
The reaction is run as follows in 50 mM Tris kinase buffer, pH 7.4 in a reaction volume of 50 ul. […] The filters are briefly air dried before addition of scintillant and samples are counted in the appropriate scintillation counter set up for reading ^33P isotope.
The raw data is captured as cpm. […] Mean cpm data is tabulated by group and % inhibition by a test compound is calculated as (corrected cpm control-corrected. cpm sample/control) X 100 = % inhibition).

Chain of Mitogen Activated Protein Kinase (Mek-Erk) (Q02750 whole entry): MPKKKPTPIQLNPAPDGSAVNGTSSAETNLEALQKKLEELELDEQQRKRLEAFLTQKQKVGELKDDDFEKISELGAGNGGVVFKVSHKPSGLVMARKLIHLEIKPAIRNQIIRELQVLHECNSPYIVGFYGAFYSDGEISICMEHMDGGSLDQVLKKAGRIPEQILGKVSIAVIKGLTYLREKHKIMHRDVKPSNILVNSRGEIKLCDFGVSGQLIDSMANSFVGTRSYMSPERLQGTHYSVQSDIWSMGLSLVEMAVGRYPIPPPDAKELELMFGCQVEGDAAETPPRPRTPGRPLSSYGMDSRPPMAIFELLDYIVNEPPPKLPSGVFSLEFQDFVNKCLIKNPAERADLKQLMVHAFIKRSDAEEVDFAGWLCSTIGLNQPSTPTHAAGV
Chain of Mitogen Activated Protein Kinase (Mek-Erk) (P28482 2-360): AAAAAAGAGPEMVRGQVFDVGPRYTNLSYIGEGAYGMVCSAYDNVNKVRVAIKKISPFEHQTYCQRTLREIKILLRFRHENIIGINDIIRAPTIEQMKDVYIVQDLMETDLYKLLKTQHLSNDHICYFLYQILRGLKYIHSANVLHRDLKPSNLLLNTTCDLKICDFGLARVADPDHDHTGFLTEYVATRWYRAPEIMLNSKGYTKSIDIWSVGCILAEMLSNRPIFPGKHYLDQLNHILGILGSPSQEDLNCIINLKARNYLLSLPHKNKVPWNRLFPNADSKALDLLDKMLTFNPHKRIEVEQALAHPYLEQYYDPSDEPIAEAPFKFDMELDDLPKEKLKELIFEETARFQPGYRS

Row | IC50 [µM] | SMILES
1 | > 10 | N#Cc1cnc2cc3c(cc2c1Nc1ccc(Oc2ccccc2)cc1)ncn3CCN1CCOCC1 [Example 58, 3-[2-(4-Morpholinyl)ethyl]-8-(4-phenoxyanilino)-3H-imidazo[4,5-g]quinoline-7-carbonitrile]
2 | > 100 | N#Cc1cnc2c(oc3ccccc32)c1Nc1ccc(Oc2ccccc2)cc1 [Example 88, 4-(4-Phenoxyphenylamino)benzo[4,5]furo[3,2-b]pyridine-3-carbonitrile]
